Publication PMC9525908, “α-Crystallin chaperone mimetic drugs inhibit lens γ-crystallin aggregation: Potential role for cataract prevention” (The Journal of Biological Chemistry, 2022)
Where a chain is given by its changes, count along the chain named. Entries after “also recorded” stand apart in the source; their conditions may differ.

How the values were obtained:
Assay type in all cases: biochemical
bovine gamma crystallins = assay: Screen: H2O2 and heat mediated aggregation of bovine gamma crystallins, turbidimetry at 600 nm; conditions: bovine γ-crystallin-rich proteins, oxidant stress 24 h and/or thermal stress 72 °C 20 min
Procedure: For the initial screen, a microtiter plate assay was developed in which bovine crystallins (2 mg/ml of 50 mM K3PO4 buffer, pH 7.2 [buffer A]) were exposed to H2O2 at varying concentrations (1–50 mM) for 12 to 36 h, upon which turbidity developed (at 50 mM H2O2 concentration) in both β- and γ-crystallins (Fig. 1, A and B). […] This was determined by turbidimetry at 600 nm (Fig. 1C) and confirmed using visual assessment of solution transparency over a fine text as well as the presence of cloudy aggregates visible by dark field microscopy (Fig. 1D). The drug:protein stoichiometric ratio was about 5:1. The wavelength of 600 nm was chosen to minimize interference by colored compounds, many of which absorb below 500 nm (Fig. 1E).
Wells were filled with 90 μl calf γ-crystallin-rich protein solution (pool 4 at 2 mg/ml) followed by 0.5 to 5.0 μl of drug (all 10 mM stock solution in DMSO) as supplied by the manufacturer and 10 μl H2O2 (450 mM stock solution in water) and sealed with sticky Applied Biosystems MicroAmp Clear Adhesive films (Life Technologies). Control wells received DMSO only. […] In order to quantitate the impact of the drugs on aggregation, a fitness plot was created (Fig. 1 C) that allowed us to identify wells with enhanced/worsening versus suppressed crystallin aggregation. In addition, aggregation in each well was also visually assessed by two independent “blinded” readers for the ability to read fine print through each well by placing the plates over small font text (Fig. 1D). Both machine and visual readouts were reconciled in order to increase robustness.

[1] = test system: Total mouse gamma crystallins; assay: H2O2 oxidation-mediated aggregation of total mouse γ-crystallins, 600 nm; conditions: 2.5 mg/ml, H2O2, 18 h at 37 °C
Procedure: In preparation for possible in vivo testing, the drugs were tested against native mouse γ-crystallins. Total gamma crystallins (2.5 mg/ml) were incubated with H2O2 for 18 h at 37 °C with increasing concentrations of drugs X, C, and G, or a combination thereof. Oxidative stress–mediated aggregation at 600 nm was suppressed by drug C but poorly by drug G (Fig. S4A, left panel). […] The baseline increase at 50 μM could reflect a destabilizing effect of the drugs because of a pro-oxidative mechanism followed by stabilizing chaperone-like effect. […] There is 52.6% more aggregation of OPJ-MγS in comparison to WT-MγS under same conditions of thermal stress. […] Fluorescence microscopy using Nile Red provides a pictorial rendition of the type and size of aggregates formed on heating WT-MγS and OPJ-MγS, with and without drugs (Fig. S4F). […] The bis-ANS fluorescence inhibition pattern is again in complete agreement with the previous results for HγD (Fig. 2F). […] As for the reproducibility of these findings, see Fig. S7 and the warning note under Rigor and reproducibility section.

R14C mutant of HγD = target: T1, R14C mutant of HγD (Homo sapiens, UniProt P07320, R15C); assay: End-point turbidity assay (72 °C, 20 min) of R14C mutant; conditions: 500 μM drug, 5 mM DTT, read-out: Inhibition of aggregation (%) R14C
T1 construct: made in house; host or cells: E. coli BL21(DE3) pLysS
T1 sequence (P07320 1-174 R15C): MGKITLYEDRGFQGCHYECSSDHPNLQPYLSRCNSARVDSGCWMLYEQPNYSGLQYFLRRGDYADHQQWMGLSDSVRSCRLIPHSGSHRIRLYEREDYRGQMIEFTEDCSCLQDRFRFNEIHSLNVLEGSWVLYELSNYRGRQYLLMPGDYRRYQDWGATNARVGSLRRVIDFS
Procedure: Aggregation kinetics assays at 600 nm in the presence of varying concentrations (0, 100, 200, 300, 400, and 500 μM) of our selected drugs were also performed on mutants of HγD (W43R, W42Q, R14C, and R58H) and MγS (F9S) at a concentration of 1 mg/ml in 50 mM K3PO4 buffer (pH 7.2) in a total volume of 100 μl. WT-HγD and WT-MγS crystallin served as controls for their respective mutant versions. For W43R mutant, aggregation assay was done at 42 °C for a total of 200 min. Absorbance was monitored every 10 min. For R14C and R58H mutants, end-point turbidity assay was done at 72 °C for 20 min. […] All the experiments were run in duplicates or triplicates.

HγD-ox = target: T2, HγD-ox (Homo sapiens, UniProt P07320); assay: Turbidity (600 nm) of oxidized HγD heated 10 min at 72 °C; conditions: 1.4 mg/ml with DTPA, 100 and 500 μM bis-ANS, 100 μM drug C, 500 μM drug M
T2 construct: made in house; host or cells: Escherichia coli BL21(DE3) pLysS, pET3d vector
T2 sequence (P07320 1-174): T1 sequence (P07320 1-174 R15C) with C15R
Description: In postsubmission experiments, we attempted to find mechanistic clues relevant to the use of an H2O2 oxidation step prior to the thermal stress used during the initial drug screen. For this reason, we did a comparative study of oxidized (HγD-ox) versus native HγD (HyD-nat), hypothesizing that bis-ANS would both act like the drugs and provide information on the role of exposed hydrophobicity ([40]). HγD was oxidized in diethylenetriaminepentaacetic acid […] phosphate buffer to facilitate hydroxyl radical formation and protein damage, followed by dialysis against DTPA-treated buffer to eliminate the known proaggregating effects of divalent metals ([32]) in the subsequent steps. […] Overall protective effects were more pronounced for the oxidized than nonoxidized form of HγD. […] In the hope to obtain clues on the impact of bis-ANS, drugs C, G, and M on protein aggregation status, native PAGE was performed (Fig. 3G). Polymers greater than 250 kD are present in unheated HγD-nat but only the size of 75 to 100 kD in HγD-ox. […] Other techniques will be needed to assess the relationship between drugs and aggregate size.

OPJ-MγS = target: T3, OPJ-MγS (Mus musculus, UniProt O35486, F10S); assay: Thermal unfolding (Tm), OPJ-MγS; conditions: 10 μM protein, 100 μM drug; for Tm (°C) OPJ-MGS N-ter: Con 48; for Tm (°C) OPJ-MGS C-ter: Con 63
T3 construct: made in house; host or cells: E. coli BL21(DE3) pLysS, pET17b vector
T3 sequence (O35486 1-178 F10S): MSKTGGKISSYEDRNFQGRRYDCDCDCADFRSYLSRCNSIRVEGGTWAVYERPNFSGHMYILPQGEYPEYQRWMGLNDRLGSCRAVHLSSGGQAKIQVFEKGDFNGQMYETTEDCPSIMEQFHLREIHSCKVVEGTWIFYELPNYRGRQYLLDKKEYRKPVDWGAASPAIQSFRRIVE
Procedure: Thermal denaturation study was monitored using fluorescence spectroscopy. Protein solutions (10 μM) in the presence and absence of drugs or bis-ANS (100 μM) were heated continuously from 30 to 95 °C, and the fluorescence data were collected every 5 °C after 1 min equilibration at the given temperature. Unfolding data were fit to Greene and Pace’s two-state model ([82]) using GraphPad Prism software (GraphPad Software, Inc).

SMILES	Antiaggregation activity (bovine gamma crystallins)	Oxidative stress–mediated aggregation at 600 nm [1]	inhibition at 500 µM (R14C mutant of HγD)	Effect on aggregation/turbidity of HγD-ox (HγD-ox)	Tm (°C) OPJ-MGS N-ter (OPJ-MγS)	Tm (°C) OPJ-MGS C-ter (OPJ-MγS)
COC(=O)/C=C/C(C)=C\C=C\C(C)=C\C=C\C=C(C)\C=C\C=C(C)\C=C\C(=O)O [drug B, Bixin]	Medium heat shock inhibitor	–	–	–	–	–
Cc1cc(C(C#N)c2ccc(Cl)cc2)c(Cl)cc1NC(=O)c1cc(I)cc(I)c1O (stereo not drawn) [drug C, Closantel]	Medium strong dual inhibitor	suppressed	68%	strongly suppressed	50 °C	69 °C
CC(C)=CCCC1(C)C=Cc2c(O)c3c(c(CC=C(C)C)c2O1)OC12C(=CC4CC1C(C)(C)OC2(C/C=C(/C)C(=O)O)C4O)C3=O (stereo not drawn) [drug D, dihydrogambogic acid]	Strong heat shock inhibitor	–	–	–	–	–
CC(C)=CCC[C@]1(C)C=Cc2c(O)c3c(c(CC=C(C)C)c2O1)O[C@]12C(=C[C@@H]4C[C@H]1C(C)(C)O[C@@]2(C/C=C(/C)C(=O)O)C4=O)C3=O [drug G, Gambogic acid]	Strong heat shock inhibitor	poorly	55%	–	50 °C	70 °C
O=C(O)CCCCCCCCCCCC[C@@H]1C=CCC1 [drug M, Chaulmoogric acid]	Dual heat shock inhibitor + antioxidant	–	18%	strongly suppressed; also recorded: protected oxidized HγD	48 °C	63 °C
